Article PMC10681007, “Targeted Degradation of XIAP is Sufficient and Specific to Induce Apoptosis in MYCN-overexpressing High-risk Neuroblastoma” (Cancer Research Communications, 2023)

Columns and labels:
Assay type in all cases: cell-based, Human
BE(2)-C = assay: RealTime-Glo MT cell viability assay; settings: Homo sapiens
Protocol: (§1) Cell viability was measured in real time using RealTime-Glo MT Cell Viability Assay as according to manufacturer's instructions from Promega. Cells were seeded at 1 × 10^4 cells per well and treated with a range of doses of indicated antagonists, followed by continuous bioluminescence reading every 24 hours for 3 days using luminescent plate reader, Varioskan (SkanIT software). IC50 was determined using GraphPad Prism software.
(§2) To determine their efficacy in neuroblastoma, a panel of neuroblastoma cell lines including neuroblastoma patient-derived cell lines and noncancerous normal tissue-derived cell lines were treated with increasing doses of each antagonist (0–100 µmol/L), followed by real-time measurement of cell viability every 24 for 72 hours.

CHP212 = assay: RealTime-Glo MT cell viability assay; settings: Homo sapiens, CHP-212
Protocol: as §1, §2

IMR-32 = assay: RealTime-Glo MT cell viability assay; settings: Homo sapiens
Protocol: as §1, §2

KELLY = assay: RealTime-Glo MT cell viability assay; settings: Homo sapiens
Protocol: as §1, §2

NB1 = assay: RealTime-Glo MT cell viability assay; settings: Homo sapiens
Protocol: as §1, §2

[1] = test system: NBL-07-0317 patient-derived neuroblastoma cells; assay: RealTime-Glo MT cell viability assay; settings: Homo sapiens, Neuroblastoma cell
Protocol: as §1, §2

[2] = test system: NBL01-1116 patient-derived neuroblastoma cells; assay: RealTime-Glo MT cell viability assay; settings: Homo sapiens, Neuroblastoma cell
Protocol: as §1, §2

[3] = test system: NBL16-0118 patient-derived neuroblastoma cells; assay: RealTime-Glo MT cell viability assay; settings: Homo sapiens, Neuroblastoma cell
Protocol: as §1, §2

[4] = test system: NBL27-0218A patient-derived neuroblastoma cells; assay: RealTime-Glo MT cell viability assay; settings: Homo sapiens, Neuroblastoma cell
Protocol: as §1, §2

NLF = assay: RealTime-Glo MT cell viability assay; settings: Homo sapiens
Protocol: as §1, §2

SK-N-AS = assay: RealTime-Glo MT cell viability assay; settings: Homo sapiens
Protocol: as §1, §2

SK-N-SH = assay: RealTime-Glo MT cell viability assay; settings: Homo sapiens
Protocol: as §1, §2

HS5 (bone marrow origin) = assay: RealTime-Glo MT cell viability assay, noncancerous normal cells; settings: Homo sapiens
Protocol: as §1, §2
(§3) To evaluate this, noncancerous normal tissue-derived cell lines THLE3 and HS5 were utilized to evaluate toxicity and tolerability.

THLE3 (liver origin) = assay: as above; settings: Homo sapiens
Protocol: as §1, §2, §3

THLE3 and HS5 = assay: Toxicity and tolerability in noncancerous normal tissue-derived cell lines; settings: THLE3 and HS5 versus neuroblastoma cells
Protocol: as §1
To evaluate this, noncancerous normal tissue-derived cell lines THLE3 and HS5 were utilized to evaluate toxicity and tolerability. […] On the basis of their overall potency and specificity toward neuroblastoma cells over noncancerous normal cells, A4, B3, and BV6 were selected as the more efficacious antagonists to be studied further in subsequent experiments (Fig. 2A).

[5] = test system: neuroblastoma cells across the panel of cell lines; assay: Cell viability, IC50 range across the panel; settings: Homo sapiens, Neuroblastoma cell; range over cell lines, doses 0–100 µmol/L, viability every 24 for 72 hours; read-out: IC50 against neuroblastoma cells across the panel of cell lines
Protocol: as §1, with “([…]” for “(SkanIT”, “software. To determine their efficacy in neuroblastoma, a panel of neuroblastoma cell lines including neuroblastoma patient-derived cell lines and noncancerous normal tissue-derived cell lines were treated with increasing doses of each antagonist (0-100 μmol/L), followed by real-time measurement of cell viability every 24 for 72 hours. […] Supplementary Table S2; Fig. 2A). […] Fig. 2A).” for “software.”

CN[C@@H](C)C(=O)N[C@H]1CN(C(=O)CC(C)C)CC[C@H]2CC[C@@H](C(=O)NC(c3ccccc3)c3ccccc3)N2C1=O [Debio 1143]
IC50 (BE(2)-C; 24 hours): > 100 µM | IC50 (BE(2)-C; 48 hours): > 100 µM | IC50 (BE(2)-C; 72 hours): > 100 µM | IC50 (CHP212; CHP212, 24 hours): > 100 µM | IC50 (CHP212; CHP212, 48 hours): > 100 µM | IC50 (CHP212; CHP212, 72 hours): > 100 µM | IC50 (IMR-32; IMR-32, 24 hours): > 100 µM | IC50 (IMR-32; IMR-32, 48 hours): > 100 µM | IC50 (IMR-32; IMR-32, 72 hours): 64.5 µM | IC50 (KELLY; 24 hours): 91 µM | IC50 (KELLY; 48 hours): 73.5 µM | IC50 (KELLY; 72 hours): > 100 µM | IC50 (NB1; NB1, 24 hours): > 100 µM | IC50 (NB1; NB1, 48 hours): > 100 µM | IC50 (NB1; NB1, 72 hours): 64.5 µM | IC50 ([1]; NBL-07-0317, 24 hours): > 100 µM | IC50 ([1]; NBL-07-0317, 48 hours): 93 µM | IC50 ([1]; NBL-07-0317, 72 hours): > 100 µM | IC50 ([2]; NBL01-1116, 24 hours): > 100 µM | IC50 ([2]; NBL01-1116, 48 hours): > 100 µM | IC50 ([2]; NBL01-1116, 72 hours): > 100 µM | IC50 ([3]; NBL16-0118, 24 hours): > 100 µM | IC50 ([3]; NBL16-0118, 48 hours): > 100 µM | IC50 ([3]; NBL16-0118, 72 hours): > 100 µM | IC50 ([4]; 24 hours): > 100 µM | IC50 ([4]; 48 hours): > 100 µM | IC50 ([4]; 72 hours): 50 µM | IC50 (NLF; 24 hours): > 100 µM | IC50 (NLF; 48 hours): 78.5 µM | IC50 (NLF; 72 hours): > 100 µM | IC50 (SK-N-AS; 24 hours): 68.5 µM | IC50 (SK-N-AS; 48 hours): 50.5 µM | IC50 (SK-N-AS; 72 hours): 85 µM | IC50 (SK-N-SH; 24 hours): > 100 µM | IC50 (SK-N-SH; 48 hours): > 100 µM | IC50 (SK-N-SH; 72 hours): 35.5 µM | IC50 (HS5 (bone marrow origin); HS5, 24 hours): > 100 µM | IC50 (HS5 (bone marrow origin); HS5, 48 hours): 90 µM | IC50 (HS5 (bone marrow origin); HS5, 72 hours): > 100 µM | IC50 (THLE3 (liver origin); THLE3, 24 hours): > 100 µM | IC50 (THLE3 (liver origin); THLE3, 48 hours): 73 µM | IC50 (THLE3 (liver origin); THLE3, 72 hours): 80 µM | toxicity to noncancerous cells (THLE3 and HS5): more toxic toward noncancerous cells than neuroblastoma cells

CN[C@@H](C)C(=O)N[C@H](C(=O)N1CCC[C@H]1c1nc(C(=O)c2ccc(F)cc2)cs1)C1CCCCC1 [LCL161]
IC50 (BE(2)-C; 24 hours): > 60 µM | IC50 (BE(2)-C; 48 hours): 42.5 µM | IC50 (BE(2)-C; 72 hours): 32.5 µM | IC50 (CHP212; CHP212, 24 hours): 42 µM | IC50 (CHP212; CHP212, 48 hours): 33 µM | IC50 (CHP212; CHP212, 72 hours): 31.2 µM | IC50 (IMR-32; IMR-32, 24 hours): > 60 µM | IC50 (IMR-32; IMR-32, 48 hours): 30 µM | IC50 (IMR-32; IMR-32, 72 hours): 19 µM | IC50 (KELLY; 24 hours): 48.2 µM | IC50 (KELLY; 48 hours): 27.6 µM | IC50 (KELLY; 72 hours): 21.2 µM | IC50 (NB1; NB1, 24 hours): > 60 µM | IC50 (NB1; NB1, 48 hours): 46.5 µM | IC50 (NB1; NB1, 72 hours): 27.4 µM | IC50 ([1]; NBL-07-0317, 24 hours): 33.6 µM | IC50 ([1]; NBL-07-0317, 48 hours): 31.8 µM | IC50 ([1]; NBL-07-0317, 72 hours): 30 µM | IC50 ([2]; NBL01-1116, 24 hours): 42 µM | IC50 ([2]; NBL01-1116, 48 hours): 36.4 µM | IC50 ([2]; NBL01-1116, 72 hours): 36 µM | IC50 ([3]; NBL16-0118, 24 hours): 34 µM | IC50 ([3]; NBL16-0118, 48 hours): 27.5 µM | IC50 ([3]; NBL16-0118, 72 hours): 22.5 µM | IC50 ([4]; 24 hours): 39 µM | IC50 ([4]; 48 hours): 32.5 µM | IC50 ([4]; 72 hours): 28.5 µM | IC50 (NLF; 24 hours): 32.8 µM | IC50 (NLF; 48 hours): 30.2 µM | IC50 (NLF; 72 hours): 28.5 µM | IC50 (SK-N-AS; 24 hours): 34 µM | IC50 (SK-N-AS; 48 hours): 22.5 µM | IC50 (SK-N-AS; 72 hours): 15.7 µM | IC50 (SK-N-SH; 24 hours): 55.4 µM | IC50 (SK-N-SH; 48 hours): 44 µM | IC50 (SK-N-SH; 72 hours): 33 µM | IC50 (HS5 (bone marrow origin); HS5, 24 hours): 30 µM | IC50 (HS5 (bone marrow origin); HS5, 48 hours): 18 µM | IC50 (HS5 (bone marrow origin); HS5, 72 hours): 15.5 µM | IC50 (THLE3 (liver origin); THLE3, 24 hours): > 60 µM | IC50 (THLE3 (liver origin); THLE3, 48 hours): 24 µM | IC50 (THLE3 (liver origin); THLE3, 72 hours): 14.5 µM | IC50 [5]: 20 to 60 µM | toxicity to noncancerous cells (THLE3 and HS5): more toxic toward noncancerous cells than neuroblastoma cells
